Experiments:
human P2X3 receptor = human P2X3 receptor (Homo sapiens (Human), UniProt P56373); assay: Evaluation of human P2X3 receptor inhibitory activity (Fluo-3 calcium fluorescence, FDSS 3000, ATP stimulation); assay type: cell-based;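 also: stimulus was 50 nM ATP with fluorescence followed for 3 min, and the response per well was peak post-ATP fluorescence divided by the reading at measurement start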
[1] = system: partial sciatic nerve ligation model in rats; assay: Analgesic effect in a Seltzer model, Evaluation (1): mechanical allodynia, von Frey filaments; assay type: in vivo; conditions: rat, oral single administration, at 3 hours, read-out: analgesic effect, percent reversal of mechanical allodynia
Source text: Rats were anaesthetized using isoflurane/O2 inhalation anaesthesia. After induction of anesthesia, the left thigh was shaved. An incision was made in the skin just below the hip bone. The muscle was bluntly dissected to expose the sciatic nerve. One third (⅓) to one half (½) of the sciatic nerve thickness was tightly ligated and the wound was closed. The right thigh is used as a sham-operated control. The right thigh undergoes an identical procedure with the left hind limb, however, the sciatic nerve is not manipulated or ligated.
Two weeks after nerve ligation, the effect on mechanical allodynia was assessed using a series of von Frey filaments. For habituation, the rats were placed into a plastic cage on a wire mesh bottom. The mechanical sensitivity (mechanical threshold) of the hind paws was estimated with a series of von Frey filaments (0.4-20 g). The measurement of mechanical sensitivity of the right and left hind paws was performed to obtain predose mechanical sensitivity. The rats showing thee threshold change from 0.6 to 2 g (in nerve ligated side) and 8 to 15 g (in sham operated side) were used in the experiments. On the day belone the experiment, the rats were evaluated with a series of von Frey filaments to familiarize them with the test procedure. The adopted animal was administrated with the test compounds. The test compounds were homogenized with mortar and pestle and suspended or diluted in 0.5% Methyl Cellulose to prepare 0.1-2.0 mg/mL/kg suspension and orally administered to rat using a syringe attached with a sonde. Post-dose mechanical sensitivities of the right and left hind paws were measured at approximately 1 to 5 hours after drug administration. Percent reversal of mechanical allodynia for each rat was calculated using the following formula. The analgesic effects of the compounds were compared.

CYP1A2 = CYP1A2 (Homo sapiens (Human), UniProt P05177); assay: CYP inhibition test, pooled human hepatic microsome, 7-ethoxyresorufin O-deethylation; assay type: in vitro ADME; conditions: substrate ethoxyresorufin
Procedure: (§1) Using commercially available pooled human hepatic microsome, and employlng, as markers, 7-ethoxyresorufin O-deethylation (CYP1A2), tolbutamide methyl-hydroxylation (CYP2C9), mephenyloin 4′-hydroxylation (CYP2C19), dextromethorphan O-demethylation (CYP2D6), and terfenedine hydroxylation as typical substrate metabolism reactions of human main five CYP enzyme forms (CYP1A2, 2C9, 2C19, 2D6, 3A4), an inhibitory degree of each metabolite production amount by a test compound was assessed.
(§2) The reaction conditions were as follows: substrate, 0.5 μmol/L ethoxyresorufin (CYP1A2), 100 μmol/L tolbutamide (CYP2C9), 50 μmol/L S-mephenitoin (CYP2C19), 5 μmol/L dextromethorphan (CYP2D6), 1 μmol/L terfenedine (CYP3A4) reaction time, 15 minutes; reaction temperature, 37° C; enzyme, pooled human hepatic microsome 0.2 mg protein/mL; test drug concentration, 1.0, 5.0, 10, 20 μmol/L (four points).
(§3) Each five kinds of substrates, human hepatic microsome, or a test drug in 50 mmol/L Hepes buffer as a reaction solution was added to a 96-well plate at the composition as described above, NADPH, as a cofactor was added to initiate metabolism reactions as markers and, after the incubation at 37° C. for 15 minutes, a methanol/acetonitrile=1/1 (v/v) solution was added to stop the reaction. After the centrifugation at 3000 rpm for 15 minutes, resorufin (CYP1A2 metabolite) in the supernatant was quantified by a fluorescent multilabel counter and tributamide hydroxide (CYP2CP metabolite), mephenyloin 4′ hydroxide (CYP2C19 metabolite), […] (CYP2D6 metabolite), and terfenadine alcohol (CYP3A4 metabolite) were quantified by LC/MS/MS.

CYP2C9 = CYP2C9 (Homo sapiens (Human), UniProt P11712); assay: CYP inhibition test, pooled human hepatic microsome, tolbutamide methyl-hydroxylation; assay type: in vitro ADME; conditions: substrate tolbutamide
Procedure: as §1, §2, §3

CYP2C19 = CYP2C19 (Homo sapiens (Human), UniProt P33261); assay: CYP inhibition test, pooled human hepatic microsome, mephenytoin 4'-hydroxylation; assay type: in vitro ADME; conditions: substrate S-mephenitoin
Procedure: as §1, §2, §3

CYP2D6 = CYP2D6 (Homo sapiens (Human), UniProt P10635); assay: CYP inhibition test, pooled human hepatic microsome, dextromethorphan O-demethylation; assay type: in vitro ADME; conditions: substrate dextromethorphan
Procedure: as §1, §2, §3

CYP3A4 = CYP3A4 (Homo sapiens (Human), UniProt P08684); assay: CYP inhibition test, pooled human hepatic microsome, terfenedine hydroxylation; assay type: in vitro ADME; conditions: substrate terfenedine
Procedure: as §1, §2, §3

[2] = Bioavailability (BA) test; assay type: in vivo; conditions: plasma; mice or SD rats, oral vs intravenous AUC
Procedure: (1) Animals: Mice or SD rats were used
(2) Breeding conditions: Mice or SD rats were allowed to freely take solid food and sterilized tap water.
(3) Dose and grouping: orally or intravenously administered at a predetermined dose; grouping was as follows (Dose depends one the compound) • Oral administration: 0.3 to 30 mg/kg (n=2 to 3) • Intravenous administration: 0.5 to 10 mg/kg (n=2 to 3)
(4) Preparation of dosing solution: for oral administration, in a solution or a suspension state: for intravenous administration, in a solubilized state
(5) Administration method: in oral administration, forcedly administer into ventriculus with oral probe; in intravenous administration, administer from caudal vein with a needle-equipped syringe
(6) Evaluation items: blood was collected over time, and the plasma concentration of drug was measured by LC/MS/MS
(7) Statistical analysis: regarding the transition of the plasma concentration or the present compound, the area under the plasma concentration-time curve (AUC) was calculated by non-linear least squares program WinNonlin (Registered trade name), and the bioavailability (BA) was calculated the AUCs of the oral administration group and intravenous administration group

serum = assay: Protein binding test (equilibrium dialysis, serum); assay type: in vitro ADME; conditions: 37° C., 24 hours, 2 μg/mL
Procedure: The unbound fraction the present compound in serum was measured using serum of various species.
The reactive conditions are as follows: Evaluation method, Equilibrium dialysis; Reaction time, 24 hours; Reaction temperature, 37° C.; Concentration of the present compound, 2 μg/mL.
The test solution was added to each serum and the mixture was agitated to prepare the serum samples at the concentration mentioned above. Each serum sample was added into one side or the cell and phosphate buffered saline (PBS) was added into the other side to perform equilibrium dialysis at 37° C. for 24 hours. Then, the concentration of the compounds in the samples that were obtained from both sides was measured by LC/MS/MS.
(Result) The ratio of PBS concentration to serum concentration is expressed as unbound fraction.

[3] = C6BU-1 cells stably expressing human P2X3 receptor, Fluo-3 fluorescence, FDSS 3000
[4] = C6BU-1 cells stably expressing human P2X3 receptor
[5] = human P2X3 receptor, Test Example 1

human P2X3 receptor, sequence (P56373 whole entry): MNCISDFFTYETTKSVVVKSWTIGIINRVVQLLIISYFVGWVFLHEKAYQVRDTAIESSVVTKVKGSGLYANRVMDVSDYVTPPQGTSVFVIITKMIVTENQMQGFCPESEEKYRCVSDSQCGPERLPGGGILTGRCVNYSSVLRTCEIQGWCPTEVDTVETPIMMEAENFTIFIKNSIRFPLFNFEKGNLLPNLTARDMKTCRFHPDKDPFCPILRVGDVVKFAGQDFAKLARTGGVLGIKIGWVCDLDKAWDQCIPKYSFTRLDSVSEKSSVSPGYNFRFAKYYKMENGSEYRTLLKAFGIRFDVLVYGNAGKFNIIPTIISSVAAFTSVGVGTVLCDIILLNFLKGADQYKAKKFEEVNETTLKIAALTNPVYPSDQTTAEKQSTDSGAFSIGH
CYP2D6, sequence (P10635 whole entry): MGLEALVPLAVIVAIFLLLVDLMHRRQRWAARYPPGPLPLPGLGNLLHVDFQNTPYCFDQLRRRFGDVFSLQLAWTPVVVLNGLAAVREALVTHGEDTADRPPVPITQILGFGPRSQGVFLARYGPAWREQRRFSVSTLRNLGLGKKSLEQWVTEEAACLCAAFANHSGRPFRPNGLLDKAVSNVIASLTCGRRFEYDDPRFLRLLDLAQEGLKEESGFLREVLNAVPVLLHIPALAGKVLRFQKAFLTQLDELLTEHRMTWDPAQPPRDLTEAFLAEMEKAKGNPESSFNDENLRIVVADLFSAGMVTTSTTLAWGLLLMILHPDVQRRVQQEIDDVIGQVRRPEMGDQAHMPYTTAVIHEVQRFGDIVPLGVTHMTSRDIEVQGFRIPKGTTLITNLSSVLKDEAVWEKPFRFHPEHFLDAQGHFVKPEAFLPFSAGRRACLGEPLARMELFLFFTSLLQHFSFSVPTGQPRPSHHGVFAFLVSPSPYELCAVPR
CYP1A2, sequence (P05177 whole entry): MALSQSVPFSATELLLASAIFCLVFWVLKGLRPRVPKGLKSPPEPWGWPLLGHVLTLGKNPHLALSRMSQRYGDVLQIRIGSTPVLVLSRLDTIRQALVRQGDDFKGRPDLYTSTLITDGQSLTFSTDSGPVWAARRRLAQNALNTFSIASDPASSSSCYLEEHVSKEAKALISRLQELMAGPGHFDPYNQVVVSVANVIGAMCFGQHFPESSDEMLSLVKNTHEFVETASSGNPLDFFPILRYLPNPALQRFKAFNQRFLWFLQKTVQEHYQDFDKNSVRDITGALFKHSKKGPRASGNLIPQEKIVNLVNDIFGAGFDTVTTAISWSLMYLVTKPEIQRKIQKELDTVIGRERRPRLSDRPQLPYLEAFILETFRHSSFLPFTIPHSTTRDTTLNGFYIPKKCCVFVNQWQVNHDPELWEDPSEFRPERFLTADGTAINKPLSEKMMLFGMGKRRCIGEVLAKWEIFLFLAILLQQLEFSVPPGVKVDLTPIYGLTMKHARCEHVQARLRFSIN
CYP2C9, sequence (P11712 whole entry): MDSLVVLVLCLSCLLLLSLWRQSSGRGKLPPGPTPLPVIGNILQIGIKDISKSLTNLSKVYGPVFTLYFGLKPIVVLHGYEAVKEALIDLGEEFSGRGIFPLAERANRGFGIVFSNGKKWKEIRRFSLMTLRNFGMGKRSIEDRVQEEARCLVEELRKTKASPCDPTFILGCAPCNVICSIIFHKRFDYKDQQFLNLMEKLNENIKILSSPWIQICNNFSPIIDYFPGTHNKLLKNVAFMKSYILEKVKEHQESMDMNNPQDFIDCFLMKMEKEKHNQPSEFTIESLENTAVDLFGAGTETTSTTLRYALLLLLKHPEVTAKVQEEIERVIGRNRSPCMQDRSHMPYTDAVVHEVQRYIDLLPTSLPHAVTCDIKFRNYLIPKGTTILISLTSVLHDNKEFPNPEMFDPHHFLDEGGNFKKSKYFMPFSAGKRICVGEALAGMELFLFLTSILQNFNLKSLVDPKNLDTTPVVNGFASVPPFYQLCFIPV
CYP3A4, sequence (P08684 whole entry): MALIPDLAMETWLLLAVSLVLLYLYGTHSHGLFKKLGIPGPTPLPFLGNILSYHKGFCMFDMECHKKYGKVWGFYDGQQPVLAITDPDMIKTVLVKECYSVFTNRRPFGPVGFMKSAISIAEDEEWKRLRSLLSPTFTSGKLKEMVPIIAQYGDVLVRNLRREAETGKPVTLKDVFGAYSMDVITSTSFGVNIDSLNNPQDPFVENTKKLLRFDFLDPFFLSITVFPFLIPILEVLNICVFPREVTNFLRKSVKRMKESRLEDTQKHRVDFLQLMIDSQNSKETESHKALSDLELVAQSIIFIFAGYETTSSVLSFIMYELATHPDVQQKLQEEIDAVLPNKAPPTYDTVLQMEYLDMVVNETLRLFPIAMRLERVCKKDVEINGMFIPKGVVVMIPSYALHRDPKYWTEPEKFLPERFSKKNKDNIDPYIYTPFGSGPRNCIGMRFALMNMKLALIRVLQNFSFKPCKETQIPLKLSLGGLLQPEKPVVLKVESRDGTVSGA
CYP2C19, sequence (P33261 whole entry): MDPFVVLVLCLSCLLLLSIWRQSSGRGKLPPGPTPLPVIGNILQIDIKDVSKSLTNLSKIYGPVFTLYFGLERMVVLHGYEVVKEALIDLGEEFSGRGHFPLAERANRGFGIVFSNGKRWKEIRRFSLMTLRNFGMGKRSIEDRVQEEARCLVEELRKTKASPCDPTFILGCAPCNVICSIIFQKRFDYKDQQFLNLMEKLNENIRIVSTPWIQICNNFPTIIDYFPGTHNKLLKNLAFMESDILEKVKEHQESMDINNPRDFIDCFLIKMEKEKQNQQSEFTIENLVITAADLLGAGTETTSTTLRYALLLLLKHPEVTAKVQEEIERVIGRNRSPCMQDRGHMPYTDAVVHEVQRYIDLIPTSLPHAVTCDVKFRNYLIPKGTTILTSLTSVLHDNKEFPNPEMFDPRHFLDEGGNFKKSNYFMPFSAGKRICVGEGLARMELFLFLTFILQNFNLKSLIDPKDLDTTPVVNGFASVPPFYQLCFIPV

| SMILES | inhibition in vivo at 3 mg/kg [1] | IC50 (human P2X3 receptor; [4]) | IC50 (human P2X3 receptor; [5]) | other results |
| --- | --- | --- | --- | --- |
| O=c1[nH]/c(=N\c2ccc(OCC3CC3)cc2)n(Cc2ccc(Cl)cc2)c(=O)n1CC(CO)CO [Compound I-1849] | > 30% | – | – | IC50 (human P2X3 receptor; [3]): 7 nM |
| Cc1ccc(Cn2c(=O)n([C@@H](C)[C@@H](C)C(=O)O)c(=O)[nH]/c2=N\c2ccc(OC(C)C)c(Cl)c2)cc1 [Compound I-0931] | > 30% | – | – | IC50 (human P2X3 receptor; [3]): 12 nM |
| CCn1c(=O)[nH]/c(=N\c2ccc(Oc3ncc(C(=O)O)s3)cc2)n(Cc2ccc(Cl)cc2)c1=O [Compound I-2153] | > 30% | 6 nM | – | – |
| Cn1c(=O)[nH]/c(=N\c2ccc(Oc3cnc(C#N)cn3)cc2)n(Cc2ccc(Cl)cc2)c1=O [Compound I-2428] | > 30% | – | 5 nM | – |
| O=c1[nH]/c(=N\c2ccc(Oc3ccon3)cc2)n(Cc2ccc(Cl)cc2)c(=O)n1CCO [Compound I-2292] | > 30% | – | 12 nM | – |
| Cn1c(=O)[nH]/c(=N\c2ccc(Oc3cccc(C(=O)O)n3)cc2)n(Cc2ccc(Cl)cc2)c1=O [Compound I-2272] | > 30% | – | 8 nM | – |
| CCn1c(=O)[nH]/c(=N\c2ccc(Oc3ccc(C(N)=O)nn3)cc2)n(Cc2ccc(Cl)cc2)c1=O [Compound I-2283] | > 30% | – | < 4 nM | – |
| CC(CO)(CO)Cn1c(=O)[nH]/c(=N\c2ccc(Oc3ccon3)cc2)n(Cc2ccc(Cl)cc2)c1=O [Compound I-2369] | > 30% | – | 3 nM | – |
| COC(=O)[C@@H](C)Cn1c(=O)[nH]/c(=N\c2cccc(C3C=CCCC3)c2)n(Cc2ccc(C)cc2)c1=O (some centres unmarked) [Compound I-1079] | – | – | – | IC50 (CYP1A2): > 20000 nM; IC50 (CYP2C9): > 20000 nM; IC50 (CYP2C19): > 20000 nM; IC50 (CYP2D6): > 20000 nM; IC50 (CYP3A4): > 20000 nM; bioavailability [2]: > 99.9% |
| Cc1ccc(Cn2c(=O)n(C[C@H](C)C(=O)O)c(=O)[nH]/c2=N\c2ccc(CC(C)C)c(Cl)c2)cc1 [Compound I-1373] | > 30% | 4 nM | – | – |
| Cc1cc(/N=c2\[nH]c(=O)n([C@@H](C)[C@@H](C)C(=O)O)c(=O)n2Cc2ccc(Cl)cc2)ccc1OC(C)C [Compound I-0826] | > 30% | – | 19 nM | – |
| CNC(=O)c1cc(Oc2ccc(/N=c3\[nH]c(=O)n(C)c(=O)n3Cc3ccc(Cl)cc3)cc2)ccn1 [Compound I-2011] | – | 10 nM | – | unbound fraction (ratio of PBS concentration to serum concentration) (serum): 0.5% |
| O=c1[nH]/c(=N\c2ccc(Oc3ccon3)cc2)n(Cc2ccc(Cl)cc2)c(=O)n1C[C@H](O)CO [Compound I-2293] | > 30% | – | 6 nM | – |
| Cc1cc(Oc2ccc(/N=c3\[nH]c(=O)n(C[C@H](O)CO)c(=O)n3Cc3ccc(Cl)cc3)cc2)no1 [Compound I-1757] | > 30% | – | – | IC50 (human P2X3 receptor; [3]): 12 nM |
| CCn1c(=O)[nH]/c(=N\c2ccc(Oc3ccc(F)c(C(=O)O)c3)cc2)n(Cc2ccc(Cl)cc2)c1=O [Compound I-2066] | – | 23 nM | – | – |
| C[C@@H](C(=O)O)[C@H](C)n1c(=O)[nH]/c(=N\c2ccc3c(c2)CCOC3)n(Cc2ccc(Cl)cc2)c1=O [Compound I-1810] | – | – | – | IC50 (human P2X3 receptor; [3]): 682 nM |

| SMILES | inhibition in vivo at 3 mg/kg [1] | IC50 (human P2X3 receptor; [4]) | IC50 (human P2X3 receptor; [5]) | other results |
| --- | --- | --- | --- | --- |
| CC(C)Oc1ccc(/N=c2\[nH]c(=O)n(C/C(N)=N/O)c(=O)n2Cc2ccc(Cl)cc2)cc1F [Compound I-0599] | – | 38 nM | – | – |
| COC(=O)[C@@H](C)[C@@H](C)n1c(=O)[nH]/c(=N\c2ccc(OC(C)C)c(C)c2)n(Cc2ccc(Cl)cc2)c1=O [Compound I-0811] | – | 40 nM | – | – |
| Cc1cnc(Oc2ccc(/N=c3\[nH]c(=O)n(CC(CO)CO)c(=O)n3Cc3ccc(Cl)cc3)cc2)s1 [Compound I-2458] | – | – | 3 nM | – |
| CCOC(=O)CCn1c(=O)[nH]/c(=N\c2ccc(OC(C)C)c(Br)c2)n(Cc2ccc(C)cc2)c1=O [Compound I-1168] | – | – | – | IC50 (human P2X3 receptor; [3]): 4 nM |
| COC(=O)CCCCn1c(=O)[nH]/c(=N\c2ccc(OC(C)C)c(Cl)c2)n(Cc2ccc(Cl)cc2)c1=O [Compound I-2182] | – | 3 nM | – | – |
| Cc1cc(Oc2ccc(/N=c3\[nH]c(=O)n(CCCC(=O)O)c(=O)n3Cc3ccc(Cl)cc3)cc2)ccn1 [Compound I-1404] | – | 24 nM | – | – |
| CCn1c(=O)[nH]/c(=N\c2ccc(Oc3cccc(CO)n3)cc2)n(Cc2ccc(Cl)cc2)c1=O [Compound I-2639] | – | – | 26 nM | – |
| CCn1c(=O)[nH]/c(=N\c2ccc(Oc3cncc(C(=O)OC)n3)cc2)n(Cc2ccc(Cl)cc2)c1=O [Compound I-2270] | – | – | < 4 nM | – |
| CCn1c(=O)[nH]/c(=N\c2ccc(Oc3cncc(C#N)c3)cc2)n(Cc2ccc(Cl)cn2)c1=O [Compound I-2318] | – | – | 18 nM | – |
| COc1ccc(Oc2ccc(/N=c3\[nH]c(=O)n(CCCO)c(=O)n3Cc3ccc(Cl)cc3)cc2)cn1 [Compound I-1733] | – | – | – | IC50 (human P2X3 receptor; [3]): 3 nM |
| CCOC(=O)CCn1c(=O)[nH]/c(=N\c2ccc(Oc3cccnc3)cc2)n(Cc2ccc(Cl)cc2)c1=O [Compound I-1204] | – | 5 nM | – | – |
| CCC(Cn1c(=O)[nH]/c(=N\c2ccc(OC(C)C)c(C)c2)n(Cc2ccc(Cl)cc2)c1=O)C(=O)OC(C)(C)C (centres unmarked) [Compound I-0701] | – | 35 nM | – | – |
| CCc1oc2ccc(/N=c3\[nH]c(=O)n(CCCC(=O)OC)c(=O)n3Cc3ccc(Cl)cc3)cc2c1C [Compound I-1700] | – | – | – | IC50 (human P2X3 receptor; [3]): 12 nM |
| CCc1cc(/N=c2\[nH]c(=O)n(CCC(=O)O)c(=O)n2Cc2ccc(C)cc2)ccc1OC(C)C [Compound I-1199] | – | 36 nM | – | – |
| CCn1c(=O)[nH]/c(=N\c2ccc3nc(N4CCC4)sc3c2)n(Cc2ccc(Cl)cc2)c1=O [Compound I-2280] | – | – | 127 nM | – |
| CCOC(=O)c1coc(Oc2ccc(/N=c3\[nH]c(=O)n(CC)c(=O)n3Cc3ccc(Cl)cc3)cc2)n1 [Compound I-2188] | – | 9 nM | – | – |

Source: patent US9718790B2, “Triazine derivative and pharmaceutical composition having an analgesic activity comprising the same” (SHIONOGI & CO., LTD., priority 2010, dated 2017)
